From patent US11297838B2, “Pesticidal compositions and methods” (CORTEVA AGRISCIENCE LLC, priority 2018, dated 2022)

Experiments:
[1] = test system: Beet Armyworm (Spodoptera exigua, LAPHEG); assay: Insecticidal test for beet armyworm (BAW), 128-well diet tray assay; format: in vivo; conditions: 168 h, 50 μg/cm^2 on artificial diet, second instar larvae, five to seven days, 25° C., read-out: BAW rating, % Control (or Mortality)
Procedure: Insecticidal Test for Beet Armyworm (Spodoptera exigua, LAPHEG) (“BAW”)
Bioassays on beet armyworm (BAW; Spodoptera exigua: Lepidoptera) are conducted using a 128-well diet tray assay. One to five second instar BAW larvae are placed in each well (3 mL) of the diet tray that had been previously filled with 1 mL of artificial diet to which 50 μg/cm^2 of the test compound (dissolved in 50 μL of 90:10 acetone-water mixture) had been applied (to each of eight wells) and then allowed to dry. Trays are covered with a clear self-adhesive cover, vented to allow gas exchange, and held at 25° C., 14:10 light-dark for five to seven days. Percent mortality is recorded for the larvae in each well; activity in the eight wells is then averaged. In the reporting of the results, the “BAW & CL Rating Table” was used.

[2] = test system: Cabbage Looper (Trichloplusia ni, TRIPNI); assay: Insecticidal test for cabbage looper (CL), 128-well diet tray assay; format: in vivo; conditions: Trichoplusia ni, 168 h; 50 μg/cm^2 on artificial diet, second instar larvae, five to seven days, 25° C.; read-out: CL rating, % Control (or Mortality)
Procedure: Insecticidal Test for Cabbage Looper (Trichloplusia ni, TRIPNI) (“CL”)
Bioassays on cabbage looper (CL; Trichloplusia ni: Lepidoptera) are conducted using a 128-well diet tray assay. One to five second instar CL larvae are placed in each well (3 mL) of the diet tray that had been previously filled with 1 mL of artificial diet to which 50 μg/cm^2 of the test compound (dissolved in 50 μL of 90:10 acetone-water mixture) had been applied (to each of eight wells) and then allowed to dry. Trays are covered with a clear self-adhesive cover, vented to allow gas exchange, and held at 25° C., 14:10 light-dark for five to seven days. Percent mortality is recorded for the larvae in each well; activity in the eight wells is then averaged. In the reporting of the results, the “BAW & CL Rating Table” was used.

| SMILES | mortality at 50 µg/cm2 [1] [%] | mortality at 50 µg/cm2 [2] [%] |
| --- | --- | --- |
| CCC(C)Oc1ccc(C)cc1N1C(=O)CS/C1=N\C(=O)OCCc1ccc(-c2ncn(-c3ccc(OC(F)(F)F)cc3)n2)cc1 (stereo not drawn) [A35, 4-(1-(4-(Trifluoromethoxy)phenyl)-1H-1,2,4-triazol-3-yl)phenethyl (Z)-(3-(2-(sec-butoxy)-5-methylphenyl)-4-oxothiazolidin-2-ylidene)carbamate] | 50 to 100 | 50 to 100 |
| O=C(/N=C1\SCC(=O)N1c1cc(Cl)ccc1OC(F)(F)F)OCC(F)c1ccc(-c2ncn(-c3ccc(OC(F)(F)F)cc3)n2)cc1 (stereo not drawn) [A36, 2-Fluoro-2-(4-(1-(4-(trifluoromethoxy)phenyl)-1H-1,2,4-triazol-3-yl)phenyl)ethyl (Z)-(3-(5-chloro-2-(trifluoromethoxy)phenyl)-4-oxothiazolidin-2-ylidene)carbamate] | 50 to 100 | 50 to 100 |
| COc1ccc(N2C(=O)CS/C2=N\C(=O)OCC(F)c2ccc(-c3ncn(-c4ccc(OC(F)(F)F)cc4)n3)cc2)c(C)c1 (stereo not drawn) [A37, 2-Fluoro-2-(4-(1-(4-(trifluoromethoxy)phenyl)-1H-1,2,4-triazol-3-yl)phenyl)ethyl (Z)-(3-(4-methoxy-2-methylphenyl)-4-oxothiazolidin-2-ylidene)carbamate] | 0 | 50 to 100 |
| Cc1cc(Cl)c(N2C(=O)CS/C2=N\C(=O)OCC(F)c2ccc(-c3ncn(-c4ccc(OC(F)(F)F)cc4)n3)cc2)cc1C (stereo not drawn) [A38, 2-Fluoro-2-(4-(1-(4-(trifluoromethoxy)phenyl)-1H-1,2,4-triazol-3-yl)phenyl)ethyl (Z)-(3-(2-chloro-4,5-dimethylphenyl)-4-oxothiazolidin-2-ylidene)carbamate] | 0 | 50 to 100 |
| O=C(/N=C1\SCC(=O)N1c1cccc2c1CCCC2)OCC(F)c1ccc(-c2ncn(-c3ccc(OC(F)(F)F)cc3)n2)cc1 (stereo not drawn) [A39, 2-Fluoro-2-(4-(1-(4-(trifluoromethoxy)phenyl)-1H-1,2,4-triazol-3-yl)phenyl)ethyl (Z)-(4-oxo-3-(5,6,7,8-tetrahydronaphthalen-1-yl)thiazolidin-2-ylidene)carbamate] | 50 to 100 | 50 to 100 |
| CCOc1ccccc1N1C(=O)CS/C1=N\C(=O)OCC(F)c1ccc(-c2ncn(-c3ccc(OC(F)(F)F)cc3)n2)cc1 (stereo not drawn) [A40, 2-Fluoro-2-(4-(1-(4-(trifluoromethoxy)phenyl)-1H-1,2,4-triazol-3-yl)phenyl)ethyl (Z)-(3-(2-ethoxyphenyl)-4-oxothiazolidin-2-ylidene)carbamate] | 50 to 100 | 50 to 100 |
| CCC(C)Oc1ccc(C)cc1N1C(=O)CS/C1=N\C(=O)OCC(F)c1ccc(-c2ncn(-c3ccc(OC(F)(F)F)cc3)n2)cc1 (stereo not drawn) [A41, 2-Fluoro-2-(4-(1-(4-(trifluoromethoxy)phenyl)-1H-1,2,4-triazol-3-yl)phenyl)ethyl (Z)-(3-(2-(sec-butoxy)-5-methylphenyl)-4-oxothiazolidin-2-ylidene)carbamate] | 50 to 100 | 50 to 100 |
| CCc1cccc(C)c1N1C(=O)CS/C1=N\C(=O)OCC(F)c1ccc(-c2ncn(-c3ccc(OC(F)(F)F)cc3)n2)cc1 (stereo not drawn) [A42, 2-Fluoro-2-(4-(1-(4-(trifluoromethoxy)phenyl)-1H-1,2,4-triazol-3-yl)phenyl)ethyl (Z)-(3-(2-ethyl-6-methylphenyl)-4-oxothiazolidin-2-ylidene)carbamate] | 0 to 50 | 50 to 100 |
| CC(C)c1ccc(Cl)cc1N1C(=O)CS/C1=N\C(=O)OCCc1ccc(-c2ncn(-c3ccc(OC(F)(F)C(F)(F)F)cc3)n2)cc1 [A43, 4-(1-(4-(Perfluoroethoxy)phenyl)-1H-1,2,4-triazol-3-yl)phenethyl (Z)-(3-(5-chloro-2-isopropylphenyl)-4-oxothiazolidin-2-ylidene)carbamate] | 50 to 100 | 0 |
